In patent US6670401B2, “Polysubstituted indan-1-ol compounds, and methods for their preparation and use” (Aventis Pharma Deutschland GmbH, priority 2001, dated 2003):

Columns and labels:
[1] = system: female NMRI mice; assay: Anorectic action: cumulative evaporated milk consumption after 24 h feed removal; assay type: in vivo, mouse; settings: 30 mg/kg i.p.
Experimental: The activity of the compounds was assayed as follows:
The anorectic action was tested on female NMRI mice. After removal of feed for 24 hours, the preparation to be tested was administered intraperitoneally (i.p.) or by gavage (po). The animals were housed singly and, with free access to drinking water, they were offered evaporated milk 30 minutes after administration of the preparation. The consumption of evaporated milk was determined and the general behavior of the animals was monitored every half an hour for 7 hours. The measured milk consumption was compared to that of vehicle-treated control animals.

CC1(O)c2ccc(Cl)cc2CC1(F)S(C)(=O)=O (stereo not drawn) [Example 1, 5-Chloro-2-fluoro-2-methanesulfonyl-1-methylindan-1-ol]
melting point: 148 °C
Reduction in cumulative milk consumption as % of the control ([1]; compared with vehicle-treated control animals): 25%
cumulative milk consumption by treated animals ([1]; milk offered 30 min after administration, monitored for 7 hours, N=4): 4/2.88 ml
